This is an account of results in US20250186419A1, “DOSING REGIMENS FOR TREATING PAIN” (VERTEX PHARMACEUTICALS INCORPORATED, priority 2023, published 2025).

Entries after “also recorded” stand apart in the source; their conditions may differ.

The subject of series [1] is acute pain (surgical and non-surgical). Description: Single-arm study of safety and effectiveness of Compound 1 for acute pain, surgical and non-surgical subjects (Example 7). It counts as in vivo, human. Particulars: Compound 1 100 mg first dose, then 50 mg q12h.
Series [2] concerns pain following bunionectomy. Put plainly: Randomized, double-blind, placebo-controlled, 5-arm study of Compound 1 in subjects with pain following bunionectomy (Example 4). Particulars: for Mean SPID48: oral.
Protocol: A randomized, double-blind, placebo-controlled, 5-arm, parallel-design study to evaluate the efficacy and safety of Compound 1 on acute surgical pain is conducted. Bunionectomy is a well-established, multi-dose, surgical, acute pain model. A randomized, double-blind study design was used to avoid observer bias and reduce symptoms or outcomes arising from the subjects' knowledge of treatment.
Male and female patients between the ages of 18 and 75 years (inclusive) with pain that is ≥4 on an 11-point Numeric Pain Rating Scale (NPRS) and is moderate or severe on the Verbal Categorical Rating Scale (VRS) after bunionectomy are included in the study.
Investigational Drug: Compound 1. The investigational drug was administered orally in 10 mg tablets. […] The investigational drug was administered every 12 hours (q12h). A low, mid, and high dosing regimen were tested. The first dose in the low dosing regime was 20 mg, and the subsequent doses were 10 mg g12h. The first dose in the mid dosing regime was 60 mg, and the subsequent doses were 30 mg g12h. The first dose in the high dosing regime was 100 mg, and the subsequent doses were 50 mg g12h.
The reference drug was administered orally in 5 mg/325 mg capsules, supplied as over-encapsulated 5 mg/325 mg tablets. The reference drug was administered in a dose of 5 mg/325 mg every 6 hours (q6h).
After a screening period, subjects receive a primary unilateral first metatarsal bunionectomy repair on Day minus one under regional anesthesia (Mayo and popliteal block). A continuous popliteal sciatic block infusion (0.2% ropivacaine) is started after surgery, and remains in place until approximately 3 AM on Day 1. After removal of the popliteal sciatic block, each subject is randomized when the subject requests the first dose of study drug for pain relief and reports pain ≥4 on the NPRS and moderate or severe pain on the VRS.
Randomization was stratified by site and baseline NPRS (<8 versus ≥8). To maintain the blind, all subjects receive the same number of capsules in a double-dummy design.
Compound 1 was administered every 12 hours (q12h). The final dose of Compound 1 is given 36 hours after the first dose.
Compound 1 placebo capsules are administered every 12 hours (q12h).
11-point (0 to 10) Numeric Pain Rating Scale: NPRS scores are frequently used in bunionectomy studies and are recognized by the FDA as a valid pain intensity measure. On the 11-point NPRS, a score of 0 denotes no pain, and a score of 10 denotes the worst pain intensity imaginable. Subjects reported their pain on the 11-point NPRS immediately before their first dose of the study drug (baseline NPRS score) and at intervals over 48 hour period (i.e. 0.5, 1, 1.5, 2, 3, 4, 5, 6, 8, 12, 16, 20, 24, 28, 32, 36, 40, 44, and 48 hours (±5 minutes)) after the first dose of the study drug. Pain intensity is also recorded on the NPRS immediately before each administration of rescue medication. Pain intensity scores that are collected within 4 hours after a dose of rescue medication are deemed missing, and the missing values are imputed as the intensity recorded immediately before the administration of rescue medication.
SPID-48 is the sum of the pain intensity difference (PID) over the 48 hour time period. A pain intensity score of 0 (no pain) to 10 (worse possible pain) is obtained before starting the study and throughout the 48 time period. The pain score at each assessment time is subtracted from the baseline pain score to provide the total sum score or SPID-48. A higher SPID-48 is better and indicates a reduction in pain intensity compared to the baseline score.
4-point Verbal Categorical Rating Scale: Subjects report their pain on the 4-point VRS (none, mild, moderate, or severe) immediately before their first dose of the study drug (baseline VRS).
Series [3] relates to acute pain after an abdominoplasty. Description: Randomized, double-blind, placebo-controlled, 3-arm study of Compound 1 in acute pain after an abdominoplasty (Example 6). Particulars: Compound 1 100 mg first dose, then 50 mg q12 h, placebo 8 hours.
Series [4] concerns acute pain after a bunionectomy. Put plainly: Randomized, double-blind, placebo-controlled, 3-arm study of Compound 1 in acute pain after a bunionectomy (Example 5). Particulars: Compound 1 100 mg first dose, then 50 mg q12 h, placebo 8 hours.
The test system of series [5] is painful diabetic peripheral neuropathy (DPN). Description: Randomized, double-blind, active-controlled, dose-ranging, 4-arm study of Compound 1 in painful diabetic peripheral neuropathy (Example 8). An excerpt:
The study population included male and female subjects 18 through 80 years of age, inclusive, with presence of bilateral pain in lower extremities due to DPN for at least 1 year, and weekly average Numeric Pain Rating Scale (NPRS) pain score of ≥4.
Subjects who met eligibility criteria entered a 7-day Run-in Period to establish their baseline Numeric Pain Rating Scale (NPRS) pain score and Daily Sleep Interference Scale (DSIS) score. Subjects with a baseline average NPRS score of ≥4 points with limited variation (SD<25% of mean) were eligible for the 12-week Treatment Period followed by a Safety Follow-up Visit.
Randomization was stratified by sex (female and male) and body mass index (≥30 and <30 kg/m^2). To maintain the blind, all subjects received the same number of tablets once daily (qd) in the morning and the same number of capsules 3 times per day (tid) in a double-dummy design.
Acetaminophen was be permitted as a pain rescue medication as needed (prn) throughout the study. Subjects were permitted to take 500 mg of acetaminophen every 4 to 6 hours as needed, up to a maximum of 2500 mg in any 24-hour period.
The reference drug was administered orally in a 100 mg capsule tid.
From Day −7 through Week 12, subjects reported their average daily pain during the last 24 hours on the NPRS via e-diary; during the treatment period, the NPRS was completed in the morning before the first daily dose. Subjects also reported their current pain score before each administration of rescue medication. The NPRS scores from the daily e-diary, especially the change from baseline in the weekly average at Week 12, were used in the primary endpoint analysis, and the proportion of subjects with ≥30%, ≥50%, and ≥70% reduction in weekly average scores, especially at Week 12, as reported in the daily e-diary were used in the secondary endpoint analyses. For the primary endpoint, daily NPRS scores were averaged over a weekly period to reduce the impact of individual high or low pain scores.
Daily Sleep Interference Scale (DSIS): Pain frequently interferes with sleep, and sleep is important to quality of life. The FDA recommends evaluating the effect of analgesics on sleep. DSIS is commonly used in neuropathic pain studies and is assessed on an 11-point scale. The 11 point scale ranges from 0 (none) to 10 (severe). The DSIS was completed each morning before the first daily dose in an e-diary to describe how pain interfered with the subject's sleep. The change from baseline in the weekly average of DSIS, especially at Week 12, was used in the secondary endpoint analysis.
Patient Global Impression of Change (PGIC): The PGIC is commonly used in neuropathic pain studies, and the Initiative on Methods, Measurement, and Pain Assessment in Clinical Trials (IMMPACT) group recommends it as a core outcome measure for chronic pain studies and is thus evaluated in this study. There is some evidence that PGIC may be more sensitive in neuropathic pain studies than pain intensity assessments because it may assess additional quality of life measures. The assessment consists of a single item on a 7-point scale from 1 (very much improved) to 7 (very much worse). The PGIC was completed at selected study visits to quantify the change in subjects' overall status. The proportion of subjects categorized as improved on the PGIC assessment, especially at Week 12, was used in the secondary endpoint analysis.
Proportion of subjects using Rescue Medication and Total Medication Usage: Acetaminophen was permitted as a pain rescue medication as needed (prn) throughout the study.

In series [6] the test system is patients undergoing abdominoplasty. Description: Study of Compound 1 in patients undergoing abdominoplasty (NCT05034952). The format is in vivo, human.
Where [7] appears, read: Compound 1 combined dose groups, pregabalin 100 mg tid, 12 weeks.

On to `COc1c([C@H]2[C@H](C(=O)Nc3ccnc(C(N)=O)c3)O[C@@](C)(C(F)(F)F)[C@H]2C)ccc(F)c1F` [Compound 1, (2R,3S,4S,5R)-4-[[3-(3,4-difluoro-2-methoxy-phenyl)-4,5-dimethyl-5-(trifluoromethyl)tetrahydrofuran-2-carbonyl]amino]pyridine-2-carboxamide], for which the “Patients reporting good, very good, or excellent on Patient Global Assessment (PGA) at end of treatment” value in series [1] (all patients (256 subjects)) was determined as 83.2%; in series [1] (non-surgical patients (34 subjects)) it was 91.2%; in series [1] (surgical patients (222 subjects)), 82.0%. In series [1] (up to 14 days), the “Serious adverse events related to study drug” value is on record as “no serious adverse events were related to Compound 1”. Moreover, the “Incidence of serious adverse events” value in series [1] (up to 14 days, 256 subjects) was found to be 0.8%. The “Treatment discontinuations due to adverse events” value in series [1] (up to 14 days, 256 subjects) was determined as 2.0%. Also, the Safety and tolerability entry in series [1] (up to 14 days, surgical and non-surgical pain, 256 subjects) is “generally safe and well tolerated”. Besides, the Onset of action entry in series [2] (Compound 1 high dose, 48 hour assessment) is “rapid and was sustained through the duration of assessment”. For the same compound, the “Mean SPID48” value came to 137.8 in series [2] (High-dose Compound 1: 100 mg first dose/50 mg every 12 hours, n = 60, NPRS 0 to 48 hours); 112.9 in series [2] (Low-dose Compound 1: 20 mg first dose/10 mg every 12 hours, n = 33, NPRS 0 to 48 hours); 86.9 in series [2] (Mid-dose Compound 1: 60 mg first dose/30 mg every 12 hours, n = 62, NPRS 0 to 48 hours). Also, the “Mean SPID48 difference from placebo” value in series [2] (Low-dose Compound 1: 20 mg first dose/10 mg every 12 hours, n = 33) is listed as 11.9; in series [2] (Mid-dose Compound 1: 60 mg first dose/30 mg every 12 hours, n = 62), −14.1. The “Median time to ≥2-point reduction in NPRS from baseline” value in series [3] is 2 h. Besides, the “Median time to 2-point reduction in NPRS from baseline” value in series [4] is 4 h. Besides, the “Change from baseline at week 12 in weekly average of daily pain on the NPRS (LS Mean)” value in series [5] (Compound 1 23 mg qd (low dose), painful DPN) was −2.18; in series [5] (Compound 1 46 mg qd (mid dose), painful DPN), −2.11; in series [5] (Compound 1 69 mg qd (high dose), painful DPN), −2.26. In addition, the “Reduction in pain from baseline (NPRS)” value in series [5] (all three Compound 1 dose groups (23, 46, 69 mg qd), 12-week treatment, painful DPN) was “statistically significant and clinically meaningful reduction in pain from baseline; also recorded: significant mean reduction in pain from baseline that started from week 1”. Besides, in series [5] (all three Compound 1 dose groups (23, 46, 69 mg qd), painful DPN), the “Sleep (Daily Sleep Interference Scale, DSIS) at week 12” value is listed as “improvement in sleep”. In series [6], the “Improvement in SPID48” value is listed as “statistically significant improvement in SPID48”.
For `CC(C)C[C@H](CN)CC(=O)O` [Pregabalin, reference compound], in series [5] (setting [7]), the “Incidence of dizziness (adverse event)” value was found to be 9.3%, the “Incidence of peripheral edema (adverse event)” value stood at 5.6% and the “Incidence of weight increased (adverse event)” value was found to be 7.4%. Besides, in series [5] (Pregabalin 100 mg tid, painful DPN), the “Change from baseline at week 12 in weekly average of daily pain on the NPRS (LS Mean)” value was −2.09. In addition, in series [5] (patients treated with Compound 1 (combined), patients treated with pregabalin 100 mg tid, 12 weeks), the Related adverse events came out at 27.8%.
